{
  "source": "patent US10576151B2",
  "about": "“Ciclopirox for use in modulation of glucose homeostasis” (UNIVERSITY OF SOUTH CAROLINA, priority 2015, dated 2020)",
  "tested_on": "BiP, GRP94 and CHOP",
  "assay": "Western blot of ER stress markers in islets in culture",
  "type": "cell-based, mouse",
  "experimental": "Western Blotting. The mouse islets were treated with CPX 20 μM for 24 h and lysed in RIPA buffer [50 mM Tris, pH 7.2; 150 mM NaCl; 1% sodium deoxycholate; 0.1% SDS; 1% Triton-X 100; 10 mM NaF; 1 mM Na3VO4; protease inhibitor cocktail (1:1000, Sigma, St. Louis, Mo.)] and were subjected to immunoblot analysis by standard methods. Proteins were resolved on a 10% SDS-PAGE and transferred to a nitrocellulose membrane (Bio-Rad, Hercules, Calif.). Membranes were probed overnight with GADD153 (F-168), sc-575 from Santa Cruz Biotechnology (1:50); p21 (F-5), sc-6246 from Santa Cruz Biotechnology (1:200); actin, clone C4 MAB1501 from Millipore (Billerica, Mass., USA) (1:2000); BiP antibody (cat. no. 3183) from Cell Signaling (Danvers, Mass., USA) (1:1000); GRP94 antibody (H-212), sc-11402 from Santa Cruz Biotechnology (1:500); insulin rabbit polyclonal H-86, sc-9168 from Santa Cruz Biotechnology (1:500) antibodies followed by incubation with horseradish peroxidase-conjugated (HRP) anti-mouse (1:10000), goat anti-rabbit IgG (1:10000, Santa Cruz biotechnology Inc., Santa Cruz, Calif., USA) for 1 hr. After incubation with enhanced chemiluminescence reagents (Santa Cruz biotechnology Inc.), membranes were analyzed using an Image J software for Windows.\nIn order to understand better how CPX operates in β cells, it was tested to determine if it affected the efficiency by which insulin is produced following glucose stimulation. […] In view of the antidiabetic activity of CPX in vivo, the inhibition of insulin release appears contradictory. […]\nWhile modulation of insulin release by CPX constitutes a challenging mechanism by which CPX may affect ER stress, how CPX regulates insulin expression remains obscure. […] To test this hypothesis, islets were exposed to iron citrate, alone or combined with CPX, and the levels were recorded of chaperones BiP, GRP94 and CHOP, as well as of insulin.",
  "data": [
    {"smiles": "Cc1cc(C2CCCCC2)n(O)c(=O)c1", "note": "[CPX, 6-cyclohexyl-1-hydroxy-4-methylpyridin-2(1H)-one]", "values": [
      {"measurement": "ER stress induction (BiP, GRP94, CHOP)", "setting": "islets, iron citrate with concomitant CPX (FIG. 12A)", "value": "compromised the effects of iron citrate"},
      {"measurement": "levels of BiP, GRP94 and CHOP", "setting": "wt islets, high glucose with CPX (FIG. 11)", "value": "alleviated the levels of BiP, GRP94 and CHOP"}
    ]}
  ]
}
